Reference: patent publication US10543212B2, “Substituted amines for treating cardiac diseases” (Cardurion Pharmaceuticals, LLC, priority 2017, dated 2020)

target: T1, Full-length, GST-tagged, human CaMKIIδ (Homo sapiens, UniProt Q13557); experiment: CaMKIIδ binding assay (TR-FRET with BODIPY-labeled probe ligand); conditions: CaMKIIδ binding assay, results of Table 2
T1 construct: Full-Length, Glutathione-S-Transferase(GST)-Tagged, Human CaMKIIδ was purchased from Carna Biosciences; purchased Carna Biosciences 02-111
T1 sequence (Q13557 1-478 isoform Q13557-12): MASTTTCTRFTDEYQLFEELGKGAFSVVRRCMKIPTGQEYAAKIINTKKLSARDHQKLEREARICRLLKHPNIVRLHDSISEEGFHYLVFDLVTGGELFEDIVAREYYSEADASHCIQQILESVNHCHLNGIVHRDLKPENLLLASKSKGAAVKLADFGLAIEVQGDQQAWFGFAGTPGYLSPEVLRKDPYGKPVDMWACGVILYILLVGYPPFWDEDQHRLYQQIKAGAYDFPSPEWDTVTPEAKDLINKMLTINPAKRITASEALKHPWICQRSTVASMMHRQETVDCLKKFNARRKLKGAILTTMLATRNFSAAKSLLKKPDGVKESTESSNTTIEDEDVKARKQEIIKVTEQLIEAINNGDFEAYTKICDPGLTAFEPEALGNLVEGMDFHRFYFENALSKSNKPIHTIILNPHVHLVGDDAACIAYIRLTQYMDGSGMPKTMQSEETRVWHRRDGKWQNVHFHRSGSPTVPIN
Method in brief: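 Compounds were tested as 4-fold, eight-point series for 1 hr at room temperature, and IC50 was obtained by logistic fitting against a 3 μM parent-compound control. Signal came from displacement of a 300 nM BODIPY ligand from 0.5 nM GST-CaMKIIδ, detected via Tb-anti-GST in calmodulin/Ca2+ (pH 7.6).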

| SMILES | IC50 |
| --- | --- |
| COc1cc2c(cc1Nc1ncc(-c3ccc(C#N)c(O[C@@H](C)Cn4cnnn4)c3)cn1)C(=O)N(CC1COC1)C2 [Example 446, (S)-2-((1-(1H-tetrazol-1-yl)propan-2-yl)oxy)-4-(2-((6-methoxy-2-(oxetan-3-ylmethyl)-3-oxoisoindolin-5-yl)amino)pyrimidin-5-yl)benzonitrile] | 10 to 100 nM |
| COc1ccc(N2CCN(C3CCOCC3)CC2)cc1Nc1ncc(-c2ccc(Cl)c(O[C@@H](C)Cn3cnnn3)c2)cn1 [Example 582, (S)-5-(3-((1-(1H-tetrazol-1-yl)propan-2-yl)oxy)-4-chlorophenyl)-N-(2-methoxy-5-(4-(tetrahydro-2H-pyran-4-yl)piperazin-1-yl)phenyl)pyrimidin-2-amine] | < 10 nM |
| C[C@@H](Cn1cnnn1)Oc1cc(-c2cnc(Nc3cc(N4CCN(C5CCOCC5)CC4)ncc3OC(F)(F)F)nc2)ccc1C#N [Example 542, (S)-2-((1-(1H-tetrazol-1-yl)propan-2-yl)oxy)-4-(2-((2-(4-(tetrahydro-2H-pyran-4-yl)piperazin-1-yl)-5-(trifluoromethoxy)pyridin-4-yl)amino)pyrimidin-5-yl)benzonitrile] | < 10 nM |
| C[C@@H](Cn1cnnn1)Oc1cc(-c2cnc(Nc3cc(N4CCN(C5CCOCC5)CC4)ncc3OC(F)(F)F)nc2)ccc1Cl [Example 541, (S)-5-(3-((1-(1H-tetrazol-1-yl)propan-2-yl)oxy)-4-chlorophenyl)-N-(2-(4-(tetrahydro-2H-pyran-4-yl)piperazin-1-yl)-5-(trifluoromethoxy)pyridin-4-yl)pyrimidin-2-amine] | < 10 nM |
| COc1cc2c(cc1Nc1ncc(-c3ccc(Cl)c(O[C@@H](C)Cn4cnnn4)c3)cn1)CN(C(=O)CN(C)C)CC2 [Example 464, (S)-1-(7-((5-(3-((1-(1H-tetrazol-1-yl)propan-2-yl)oxy)-4-chlorophenyl)pyrimidin-2-yl)amino)-6-methoxy-3,4-dihydroisoquinolin-2(1H)-yl)-2-(dimethylamino)ethan-1-one] | < 10 nM |
| COc1cc2c(cc1Nc1ncc(-c3ccc(Cl)c(O[C@@H](C)Cn4cnnn4)c3)cn1)CCN(C(=O)CN1CCOCC1)C2 [Example 470, (S)-1-(6-((5-(3-((1-(1H-tetrazol-1-yl)propan-2-yl)oxy)-4-chlorophenyl)pyrimidin-2-yl)amino)-7-methoxy-3,4-dihydroisoquinolin-2(1H)-yl)-2-morpholinoethan-1-one] | < 10 nM |
| COC1CCCCC1N1CCC(n2cc(Nc3ncc(-c4ccc(Cl)c(O[C@@H](C)Cn5cnnn5)c4)cn3)c(C(F)(F)F)n2)CC1 (stereo partly drawn) [Example 554, 5-(3-(((S)-1-(1H-tetrazol-1-yl)propan-2-yl)oxy)-4-chlorophenyl)-N-(1-(1-(2-methoxycyclohexyl)piperidin-4-yl)-3-(trifluoromethyl)-1H-pyrazol-4-yl)pyrimidin-2-amine] | < 10 nM |
| COc1cnc(N2CCC(N3CCOCC3)CC2)cc1Nc1ncc(-c2ccc(Cl)c(O[C@@H](C)Cn3cnnn3)c2)cn1 [Example 456, (S)-5-(3-((1-(1H-tetrazol-1-yl)propan-2-yl)oxy)-4-chlorophenyl)-N-(5-methoxy-2-(4-morpholinopiperidin-1-yl)pyridin-4-yl)pyrimidin-2-amine] | < 10 nM |
| COc1ccc(N2CCN(C3COC3)CC2)cc1Nc1ncc(-c2ccc(Cl)c(O[C@@H](C)Cn3cnnn3)c2)cn1 [Example 576, (S)-5-(3-((1-(1H-tetrazol-1-yl)propan-2-yl)oxy)-4-chlorophenyl)-N-(2-methoxy-5-(4-(oxetan-3-yl)piperazin-1-yl)phenyl)pyrimidin-2-amine] | 10 to 100 nM |
| Cc1ccc(N2CCC(N3CCOCC3)CC2)cc1Nc1ncc(-c2ccc(Cl)c(O[C@@H](C)Cn3cnnn3)c2)cn1 [Example 491] | < 10 nM |
| COc1cc2c(cc1Nc1ncc(-c3ccc(Cl)c(O[C@@H](C)Cn4cnnn4)c3)cn1)CCN(CC(=O)O)C2 [Example 506, (S)-2-(6-((5-(3-((1-(1H-tetrazol-1-yl)propan-2-yl)oxy)-4-chlorophenyl)pyrimidin-2-yl)amino)-7-methoxy-3,4-dihydroisoquinolin-2(1H)-yl)acetic acid] | < 10 nM |
| COc1cc2c(cc1Nc1ncc(-c3ccc(Cl)c(O[C@@H](C)Cn4cnnn4)c3)cn1)N(C(=O)CN(C)C)CC2 [Example 497, (S)-1-(6-((5-(3-((1-(1H-tetrazol-1-yl)propan-2-yl)oxy)-4-chlorophenyl)pyrimidin-2-yl)amino)-5-methoxyindolin-1-yl)-2-(dimethylamino)ethan-1-one] | < 10 nM |

same assay, conditions: CaMKIIδ binding assay; activity class per Table 2

| SMILES | IC50 |
| --- | --- |
| CO[C@H]1CC[C@@H](N2CC3(CC(n4cc(Nc5ncc(-c6ccc(Cl)c(O[C@@H](C)Cn7cnnn7)c6)cn5)c(C(C)C)n4)C3)C2)CC1 [Example 1011, 5-(3-(((S)-1-(1H-tetrazol-1-yl)propan-2-yl)oxy)-4-chlorophenyl)-N-(3-isopropyl-1-(2-(cis-4-methoxycyclohexyl)-2-azaspiro[3.3]heptan-6-yl)-1H-pyrazol-4-yl)pyrimidin-2-amine] | < 10 nM |

same assay, conditions: Table 2; CaMKIIδ binding assay, activity given as class A/B/C

| SMILES | IC50 |
| --- | --- |
| C[C@@H](Cn1cnnn1)Oc1cc(-c2cnc(Nc3sc4c(c3C#N)CCC4)nc2)ccc1Cl [Example 753, (S)-2-((5-(3-((1-(1H-tetrazol-1-yl)propan-2-yl)oxy)-4-chlorophenyl)pyrimidin-2-yl)amino)-5,6-dihydro-4H-cyclopenta[b]thiophene-3-carbonitrile] | ≥ 100 nM |
| CC(C)c1nn(C2CCC(=O)CC2)cc1Nc1ncc(-c2ccc(Cl)c(O[C@@H](C)Cn3cnnn3)c2)cn1 [Example 841, (S)-4-(4-((5-(3-((1-(1H-tetrazol-1-yl)propan-2-yl)oxy)-4-chlorophenyl)pyrimidin-2-yl)amino)-3-isopropyl-1H-pyrazol-1-yl)cyclohexan-1-one] | < 10 nM |
| COc1ccc(-n2cc(Nc3ncc(-c4ccc(Cl)c(O[C@@H](C)Cn5cnnn5)c4)cn3)c(C(F)(F)F)n2)cn1 [Example 867, (S)-5-(3-((1-(1H-tetrazol-1-yl)propan-2-yl)oxy)-4-chlorophenyl)-N-(1-(6-methoxypyridin-3-yl)-3-(trifluoromethyl)-1H-pyrazol-4-yl)pyrimidin-2-amine] | ≥ 100 nM |
| C[C@@H](Cn1cnnn1)Oc1cc(-c2cnc(Nc3cn([C@H]4CC[C@@H](N5CCOCC5)CC4)nc3OCC(F)(F)F)nc2)ccc1C#N [Example 818, 2-(((S)-1-(1H-tetrazol-1-yl)propan-2-yl)oxy)-4-(2-((1-(cis-4-morpholinocyclohexyl)-3-(2,2,2-trifluoroethoxy)-1H-pyrazol-4-yl)amino)pyrimidin-5-yl)benzonitrile] | < 10 nM |
| CC(O)Cn1cc(Nc2ncc(-c3ccc(Cl)c(O[C@@H](C)Cn4cnnn4)c3)cn2)c(OCC(F)(F)F)n1 (stereo partly drawn) [Example 799, 1-(4-((5-(3-(((S)-1-(1H-tetrazol-1-yl)propan-2-yl)oxy)-4-chlorophenyl)pyrimidin-2-yl)amino)-3-(2,2,2-trifluoroethoxy)-1H-pyrazol-1-yl)propan-2-ol] | < 10 nM |
| C[C@@H](Cn1cnnn1)Oc1cc(-c2cnc(Nc3ncc(CO)n3C)nc2)ccc1Cl [Example 750, (S)-(2-((5-(3-((1-(1H-tetrazol-1-yl)propan-2-yl)oxy)-4-chlorophenyl)pyrimidin-2-yl)amino)-1-methyl-1H-imidazol-5-yl)methanol] | ≥ 100 nM |
| C[C@@H](Cn1cnnn1)Oc1cc(-c2cnc(Nc3cn(CC(O)(C(F)(F)F)C(F)(F)F)nc3C(F)(F)F)nc2)ccc1Cl [Example 744, (S)-2-((4-((5-(3-((1-(1H-tetrazol-1-yl)propan-2-yl)oxy)-4-chlorophenyl)pyrimidin-2-yl)amino)-3-(trifluoromethyl)-1H-pyrazol-1-yl)methyl)-1,1,1,3,3,3-hexafluoropropan-2-ol] | ≥ 100 nM |
| C[C@@H](Cn1cnnn1)Oc1cc(-c2cnc(Nc3cn([C@H]4CC[C@@H](N5CCOCC5)CC4)nc3OCC(F)(F)F)nc2)ccc1F [Example 814, 5-(3-(((S)-1-(1H-tetrazol-1-yl)propan-2-yl)oxy)-4-fluorophenyl)-N-(1-(cis-4-morpholinocyclohexyl)-3-(2,2,2-trifluoroethoxy)-1H-pyrazol-4-yl)pyrimidin-2-amine] | 10 to 100 nM |

same assay, conditions: Table 2; activity class for CaMKIIδ

| SMILES | IC50 |
| --- | --- |
| C#CCn1cc(Nc2ncc(-c3ccc(Cl)c(O[C@@H](C)Cn4cnnn4)c3)cn2)c(C(F)(F)F)n1 [Example 726, (S)-5-(3-((1-(1H-tetrazol-1-yl)propan-2-yl)oxy)-4-chlorophenyl)-N-(1-(prop-2-yn-1-yl)-3-(trifluoromethyl)-1H-pyrazol-4-yl)pyrimidin-2-amine] | 10 to 100 nM |
| COc1nc(N2CCN(C3CCOC3)CC2)ccc1Nc1ncc(-c2ccc(Cl)c(O[C@@H](C)Cn3cnnn3)c2)cn1 (stereo partly drawn) [Example 640, 5-(3-(((S)-1-(1H-tetrazol-1-yl)propan-2-yl)oxy)-4-chlorophenyl)-N-(2-methoxy-6-(4-(tetrahydrofuran-3-yl)piperazin-1-yl)pyridin-3-yl)pyrimidin-2-amine] | 10 to 100 nM |
| COc1nc(N2CCN(CC3COC3)CC2)ccc1Nc1ncc(-c2ccc(Cl)c(O[C@@H](C)Cn3cnnn3)c2)cn1 [Example 639, (S)-5-(3-((1-(1H-tetrazol-1-yl)propan-2-yl)oxy)-4-chlorophenyl)-N-(2-methoxy-6-(4-(oxetan-3-ylmethyl)piperazin-1-yl)pyridin-3-yl)pyrimidin-2-amine] | 10 to 100 nM |
| CCn1cc(Nc2ncc(-c3ccc(Cl)c(O[C@@H](C)Cn4cnnn4)c3)cn2)c(-c2ccccc2)n1 [Example 643, (S)-5-(3-((1-(1H-tetrazol-1-yl)propan-2-yl)oxy)-4-chlorophenyl)-N-(1-ethyl-3-phenyl-1H-pyrazol-4-yl)pyrimidin-2-amine] | 10 to 100 nM |
| C[C@@H](Cn1cnnn1)Oc1cc(-c2cnc(Nc3cn(CC4CCCN4C4CCOCC4)nc3C(F)(F)F)nc2)ccc1Cl (stereo partly drawn) [Example 611, 5-(3-(((S)-1-(1H-tetrazol-1-yl)propan-2-yl)oxy)-4-chlorophenyl)-N-(1-((1-(tetrahydro-2H-pyran-4-yl)pyrrolidin-2-yl)methyl)-3-(trifluoromethyl)-1H-pyrazol-4-yl)pyrimidin-2-amine] | < 10 nM |
